Test results as given in patent publication US20170112737A1, “COSMETICS AND PHARMACEUTICAL APPLICATIONS OF GALLIC ACID AND GALLIC ACID DERIVATIVES” (GREENPHARMA, priority 2014, published 2017).
Values joined by “and” are separate entries in the source; they are usually repeats but may differ in a detail not shown here. Equal values may be shown once.

What was measured:
Type in all cases: cell-based, human
MMP-1 = assay: ELISA of MMP-1 release by reconstructed skins in depleted medium; details: reconstructed skins in depleted culture medium, 30 μg/ml and 60 μg/ml, D9
Experimental: (§1) Human skins reconstructed from a culture of keratinocytes sowed on a collagen lattice containing fibroblasts. Depleted culture medium: Epilife and supplements (without IGF-1 and without hydrocortisone)+CaCl2 1.5 mM+vitamin C (50 μg/ml). The reconstructed skins have been placed during the passage at the air-liquid interface (D0) in a 6-well plate in the depleted culture medium containing, or not (deficient control condition), the tested compounds. Afterwards, the reconstructed skins have been cultured for 9 days with the renewal of the culture medium containing, or not, the tested compounds every 2 to 3 days from D0 to D5, and then every day between D5 and D9. In parallel, a culture of the reconstructed skins in a complete medium has been realized, as a control test. The evaluation of the tested compound has been performed: • By histological analysis, by the histological observation of the epidermal thickness after HES (Hematoxylin-Eosin-Saffron) staining, • By RT-qPCR, by analysis of the expression of 16 markers (2 of which are reference genes) selected for their importance in cutaneous ageing, on the mRNAs extracted from the reconstructed skins for each treatment, and • By quantifying the release of MMP-1, MMP-3 and procollagen I in the suspensions of the cultures on D9, by ELISA assay, using ELISA assay kits used according to the instructions of the supplier.

procollagen I = assay: ELISA of procollagen I release by reconstructed skins in depleted medium; details: reconstructed skins in depleted culture medium, 30 μg/ml and 60 μg/ml, D9
Experimental: as §1

reconstructed skins [1] = assay: RT-qPCR of cutaneous ageing markers in reconstructed skins in depleted medium; details: reconstructed skins in deficient medium, 30 μg/ml and 60 μg/ml, dose-dependent
Experimental: as §1, with “fibroblasts. The keratinocytes are cultured at 37° C., 5% CO2, at the air-liquid interface in one of the following media:” for “fibroblasts.”, “μg/ml). The following cultures have been realized: • Untreated reconstructed skins, • Skins reconstructed in a depleted medium, • Skins reconstructed in a depleted medium, each treated by a compound tested hereinabove, at a concentration of 30 μg/ml or 60 μg/ml.” for “μg/ml).”, “test. All experimental conditions have been realized with n=4.” for “test.”

MMP-3 = assay: ELISA of MMP-3 release by reconstructed skins in depleted medium; details: reconstructed skins in depleted culture medium, 30 μg/ml and 60 μg/ml, D9
Experimental: as §1

reconstructed skins [2] = assay: Histological analysis (HES) of reconstructed skins in depleted medium; details: 30 μg/ml and 60 μg/ml, 9 days
Experimental: Human skins reconstructed from a culture of keratinocytes sowed on a collagen lattice containing fibroblasts. The keratinocytes are cultured at 37° C., 5% CO2, at the air-liquid interface in one of the following media: Depleted culture medium: Epilife and supplements (without IGF-1 and without hydrocortisone)+CaCl2 1.5 mM+vitamin C (50 μg/ml). The following cultures have been realized: • Untreated reconstructed skins, • Skins reconstructed in a depleted medium, • Skins reconstructed in a depleted medium, each treated by a compound tested hereinabove, at a concentration of 30 μg/ml or 60 μg/ml. […] The evaluation of the tested compound has been performed: • By histological analysis, by the histological observation of the epidermal thickness after HES (Hematoxylin-Eosin-Saffron) staining, • By RT-qPCR, by analysis of the expression of 16 markers (2 of which are reference genes) selected for their importance in cutaneous ageing, on the mRNAs extracted from the reconstructed skins for each treatment, and • By quantifying the release of MMP-1, MMP-3 and procollagen I in the suspensions of the cultures on D9, by ELISA assay, using ELISA assay kits used according to the instructions of the supplier.

TGK [3] = assay: TGK immunolabeling in situ in NHEK cultures (Example 3); details: 72 hours; for TGK Fluorescence intensity/Number of cells: individual values (n=3); for TGK expression in the NHEK cultures (in words): activity higher than CaCl2 reference as by 10 μg/ml
Experimental: Normal human epidermal keratinocytes (NHEK); reference BIOalternatives K341, used at the third passage. Culture conditions: 37° C., 5% CO2 Culture medium: keratinocytesSFM complemented with an epidermal growth factor (EGF) 0.25 ng/ml, a pituitary extract (PE) 25 μg/ml and gentamycin […]. Experiment medium: keratinocytesSFM complemented with gentamycin 25 μg/ml. The keratinocytes have been sowed and cultured to confluence in 96-well plates and then, the medium has been replaced by an experiment medium containing, or not (control test), the tested extract or the reference (CaCl2 at 1.5 mM) and the cells have been incubated for 72 hours. All experimental conditions have been realized with n=3, for each marker. After incubation, the test medium has been withdrawn and the cells have been rinsed, fixed and permeabilized. The cells have been marked with the primary antibodies directed against the considered proteins (TGK). […] In parallel, the nucleuses of the cells have been stained by the Hoechst 33258 (bisbenzimide). The acquisition of the images has been carried out with a high-resolution imaging system, INCell AnalyzerTM 1000 (GE Healthcare). For each well, 5 captures of digitized images have been performed. The labelings have been quantified by measurement of the fluorescence intensity of the proteins divided by the number of nucleuses identified by the Hoechst (integration of the digital data by the software Developer Toolbow 1.5, GE Healthcare).

TGK [4] = assay: TGK immunolabeling in situ in NHEK cultures, loosestrife extracts (Example 5); details: 72 hours, 1.5 mM
Experimental: Normal human epidermal keratinocytes (NHEK); reference BIOalternatives K341, used at the third passage.
Culture conditions: 37° C., 5% CO2
Culture medium: keratinocytesSFM complemented with an epidermal growth factor (EGF) 0.25 ng/ml, a pituitary extract (PE) 25 μg/ml and gentamycin 25 μg/ml.
Experiment medium: keratinocytesSFM complemented with gentamycin 25 μg/ml.
The keratinocytes have been sowed and cultured to confluence in 96-well plates and then, the medium has been replaced by an experiment medium containing, or not (control test), the tested extract or the reference (CaCl2 at 1.5 mM) and the cells have been incubated for 72 hours. All experimental conditions have been realized with n=3, for each marker.
After incubation, the test medium has been withdrawn and the cells have been rinsed, fixed and permeabilized. […] The acquisition of the images has been carried out with a high-resolution imaging system, INCell Analyzer™ ([…] (GE Healthcare). For each well, 5 captures of digitized images have been performed. The labelings have been quantified by measurement of the fluorescence intensity of the proteins divided by the number of nucleuses identified by the Hoechst (integration of the digital data by the software Developer Toolbow 1.5, GE Healthcare). […]
The TGK expression is given as the Fluorescence intensity/Number of cells (UA)

SMILES	TGK % Control test (TGK [3]; 0.0011 mg/ml)	TGK % Stimulation (TGK [3]; 0.0011 mg/ml)	TGK Fluorescence intensity/Number of cells, Average (TGK [3]; 0.0011 mg/ml)	TGK Fluorescence intensity/Number of cells (TGK [3]; 0.0011 mg/ml)	TGK % Control test (TGK [3]; 0.003 mg/ml)	TGK % Stimulation (TGK [3]; 0.003 mg/ml)	TGK Fluorescence intensity/Number of cells, Average (TGK [3]; 0.003 mg/ml)	TGK Fluorescence intensity/Number of cells (TGK [3]; 0.003 mg/ml)	TGK % Control test (TGK [3]; 0.01 mg/ml)	TGK % Stimulation (TGK [3]; 0.01 mg/ml)	TGK Fluorescence intensity/Number of cells, Average (TGK [3]; 0.01 mg/ml)	TGK Fluorescence intensity/Number of cells (TGK [3]; 0.01 mg/ml)	TGK expression in the NHEK cultures (in words) (TGK [3])	further results
O=C1OC[C@H]2OC(=O)c3cc(O)c(O)c(O)c3-c3c(O)c(O)c(O)c4c3C(=O)O[C@H]([C@H]3OC(=O)c5c-4c(O)c(O)c(O)c5[C@@H]3O)[C@@H]2OC(=O)c2cc(O)c(O)c(O)c2-c2c1cc(O)c(O)c2O [Vescalagin]	287%	187%	17722 UA	22033 UA and 16688 UA and 14446 UA	589%	589%	42460 UA	32859 UA and 40124 UA and 54396 UA	702%	602%	43284 UA	27714 UA and 45383 UA and 98755 UA	induce the TGK expression in the NHEK cultures in a dose-dependent fashion	release of MMP-1 (ELISA) (MMP-1): major and significant decrease; release of procollagen I (ELISA) (procollagen I): No modification; expression of the inflammation markers (RT-qPCR) (reconstructed skins [1]): decrease of the expression of IL1B and PTGS2 to a lesser extent; expression of the marker of the extracellular matrix COLIA1 (RT-qPCR) (reconstructed skins [1]): increase of the expression of the marker of the extracellular matrix COLIA1; expression of the markers involved in the degradation of the extracellular matrix (RT-qPCR) (reconstructed skins [1]): decrease of the expression of the genes MMP1, MMP3 and TFPI2; expression of the markers of the cells of the basal layer (RT-qPCR) (reconstructed skins [1]): increase of the marker of the cell cycle MKI67; expression of the more tardive markers of the differentiation of the keratinocytes (RT-qPCR) (reconstructed skins [1]): decrease of the expression of TGM1 and CDSN; release of MMP-3 (ELISA) (MMP-3): major and significant decrease; epidermis/dermis cohesion (HES) (reconstructed skins [2]): Partial recovery of the epidermis/dermis cohesion; histology (HES) (reconstructed skins [2]): improvement of their histology
O=C(O)c1cc(O)c(O)c(O)c1 [Gallic acid, gallic acid]	–	–	–	–	–	–	–	–	688%	588%	42738 UA	47924 UA and 36228 UA and 44065 UA	induce the TGK expression in the NHEK cultures in a dose-dependent fashion	TGK % Control test (TGK [3]; 0.0003 mg/ml): 285%; TGK % Stimulation (TGK [3]; 0.0003 mg/ml): 165%; TGK Fluorescence intensity/Number of cells, Average (TGK [3]; 0.0003 mg/ml): 16260 UA; TGK Fluorescence intensity/Number of cells (TGK [3]; 0.0003 mg/ml): 18328 UA and 15263 UA and 15730 UA; TGK % Control test (TGK [3]; 0.03 mg/ml): 1110%; TGK % Stimulation (TGK [3]; 0.03 mg/ml): 1019%; TGK Fluorescence intensity/Number of cells, Average (TGK [3]; 0.03 mg/ml): 60518 UA; TGK Fluorescence intensity/Number of cells (TGK [3]; 0.03 mg/ml): 73870 UA and 53013 UA and 81670 UA
O=C1OC[C@H]2OC(=O)c3cc(O)c(O)c(O)c3-c3c(O)c(O)c(O)c4c3C(=O)O[C@H]([C@H]3OC(=O)c5c-4c(O)c(O)c(O)c5[C@H]3O)[C@@H]2OC(=O)c2cc(O)c(O)c(O)c2-c2c1cc(O)c(O)c2O [Castalagin]	202%	162%	16135 UA	21020 UA and 15623 UA and 11760 UA	436%	330%	26867 UA	30752 UA and 20672 UA and 23177 UA	714%	614%	44055 UA	59547 UA and 22164 UA and 50453 UA	induce the TGK expression in the NHEK cultures in a dose-dependent fashion	–
[Ca+2].[Cl-].[Cl-] [CaCl2, reference compound]	–	–	–	–	–	–	–	–	–	–	–	–	–	TGK expression Average (Fluorescence intensity/Number of cells) (TGK [4]): 69610 UA; TGK expression, Control test % (TGK [4]): 316%; TGK % Control test (TGK [3]; 1.5 mM): 473%; TGK % Stimulation (TGK [3]; 1.5 mM): 373%; TGK Fluorescence intensity/Number of cells, Average (TGK [3]; 1.5 mM): 29160 UA; TGK Fluorescence intensity/Number of cells (TGK [3]; 1.5 mM): 24066 UA and 30013 UA and 23527 UA; TGK Fluorescence intensity/Number of cells (TGK [3]; 1.5 mM, listed as Ca): 22987 UA and 24146 UA and 32180 UA; TGK % Control test (TGK [3]; 1.5 mM, listed as Ca): 425%; TGK % Stimulation (TGK [3]; 1.5 mM, listed as Ca): 325%; TGK Fluorescence intensity/Number of cells, Average (TGK [3]; 1.5 mM, listed as Ca): 20404 UA
